Results: patent US9433622B2, “Pyrimidine compounds useful in the treatment of diseases mediated by IKKE and/or TBK1 mechanisms” (DOMAINEX LIMITED, priority 2013, dated 2016)
Where two headings read alike, the source gives them in different places.

Legend:
TBK1 = TBK1 (Homo sapiens (Human), UniProt Q9UHD2); experiment: Lanthascreen TR-FRET kinase inhibition assay, TBK1; type: biochemical
Experimental: (§1) Compounds of the invention (synthesised as described below) were tested for activity against the IKKε and TBK-1 enzyme as follows:
(§2) Inhibitions studies were performed using a time-resolved fluorescence-based Lanthascreen™ assay. Phosphorylation of a fluorescein-labelled substrate peptide is measured using terbium-labeled phosphospecific antibodies.
(§3) Kinase inhibition assays (10 μL) were performed at 20° C. in 384-well plate format. […] The final reaction conditions contained 400 nM fluorescein-IkBα substrate ([…]), 20 μM ATP, 2 nM or 8 nM IKKε or TBK1 kinase respectively, and 3% DMSO in kinase assay buffer consisting of 50 mM HEPES (pH 7.5), 10 mM MgCl, 1 mM EGTA, 0.01% Brij-35.
(§4) Compound dilutions were prepared from 10 mM DMSO stocks by dilution into DMSO.
(§5) The kinase phosphorylation assay was initiated by the addition of the kinase and the reaction was allowed to proceed for 1 h or 2.5 h for IKKε and TBK-1 kinase respectively.

IKKε = IKKε (Homo sapiens (Human), UniProt Q14164); experiment: Lanthascreen TR-FRET kinase inhibition assay, IKKε; type: biochemical
Chain of IKKε (Q14164 whole entry): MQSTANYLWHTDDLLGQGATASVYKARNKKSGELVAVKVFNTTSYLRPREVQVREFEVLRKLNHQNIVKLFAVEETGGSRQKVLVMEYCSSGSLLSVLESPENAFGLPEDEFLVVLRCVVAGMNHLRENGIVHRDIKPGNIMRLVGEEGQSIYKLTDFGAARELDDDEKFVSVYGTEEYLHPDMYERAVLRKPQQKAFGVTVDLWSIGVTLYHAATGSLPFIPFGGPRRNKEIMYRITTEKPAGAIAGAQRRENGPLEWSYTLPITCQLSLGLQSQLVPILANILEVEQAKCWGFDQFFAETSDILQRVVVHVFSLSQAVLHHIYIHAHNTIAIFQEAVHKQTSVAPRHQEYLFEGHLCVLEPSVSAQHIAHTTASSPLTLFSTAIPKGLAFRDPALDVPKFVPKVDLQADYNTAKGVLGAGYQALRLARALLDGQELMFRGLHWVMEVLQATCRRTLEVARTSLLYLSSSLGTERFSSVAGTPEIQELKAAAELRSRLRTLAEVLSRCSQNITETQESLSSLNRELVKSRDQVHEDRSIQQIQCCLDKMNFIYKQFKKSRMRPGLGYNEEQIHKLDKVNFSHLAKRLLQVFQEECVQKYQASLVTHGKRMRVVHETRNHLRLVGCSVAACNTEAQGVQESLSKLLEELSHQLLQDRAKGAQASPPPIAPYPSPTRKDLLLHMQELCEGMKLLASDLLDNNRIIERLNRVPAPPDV
Experimental: as §1, §2, §3, §4, §5

[1] = 20 μM ATP (apparent Km), 8 nM kinase, 2.5 h
[2] = 20 μM ATP (apparent Km), 2 nM kinase, 1 h

Chain of TBK1 (Q9UHD2 whole entry): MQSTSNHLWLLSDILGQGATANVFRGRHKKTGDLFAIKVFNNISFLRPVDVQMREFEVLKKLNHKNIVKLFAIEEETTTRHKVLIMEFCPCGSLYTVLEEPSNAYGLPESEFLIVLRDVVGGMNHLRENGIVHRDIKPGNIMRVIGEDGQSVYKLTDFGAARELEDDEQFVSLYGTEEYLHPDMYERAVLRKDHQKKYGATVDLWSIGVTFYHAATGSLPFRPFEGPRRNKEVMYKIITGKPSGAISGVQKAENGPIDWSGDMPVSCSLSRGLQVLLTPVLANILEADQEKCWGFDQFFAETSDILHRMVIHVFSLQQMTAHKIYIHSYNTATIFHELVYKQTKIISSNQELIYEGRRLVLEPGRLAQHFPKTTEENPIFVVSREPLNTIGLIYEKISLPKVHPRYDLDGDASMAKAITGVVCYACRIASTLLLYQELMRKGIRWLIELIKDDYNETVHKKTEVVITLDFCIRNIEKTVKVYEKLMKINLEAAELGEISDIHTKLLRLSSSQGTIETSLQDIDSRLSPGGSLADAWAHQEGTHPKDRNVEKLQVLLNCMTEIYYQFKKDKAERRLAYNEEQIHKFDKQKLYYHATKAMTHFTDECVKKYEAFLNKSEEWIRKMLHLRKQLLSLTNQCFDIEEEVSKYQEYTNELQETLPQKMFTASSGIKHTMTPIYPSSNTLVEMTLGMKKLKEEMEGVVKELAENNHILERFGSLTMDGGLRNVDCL

Row | SMILES | IC50 (TBK1; [1]) | IC50 (IKKε; [2]) | IC50 (TBK1) | IC50 (IKKε)
1 | Cn1cc(Nc2nccc(-c3cnc(N4CCC[C@H]4C#N)c(C#N)c3)n2)cn1 [DMX-42, 2-((S)-2-Cyano-pyrrolidin-1-yl)-5-[2-(1 methyl-1H-pyrazol-4-ylamino)-pyrimidin-4-yl]-nicotinonitrile] | < 100 nM | < 1000 nM | – | –
2 | Cn1cc(Nc2nccc(-c3cnc(N4CCC[C@@H]4C(N)=O)c(C#N)c3)n2)cn1 [DMX-43, (R)-1-{3-Cyano-5-[2-(1-methyl-1H-pyrazol-4-ylamino)-pyrimidin-4-yl]-pyridin-2-yl}-pyrrolidine-2-carboxylic acid amide] | < 100 nM | < 100 nM | – | –
3 | Cn1cc(Nc2nccc(-c3cnc(N4C5CCC4CC(O)C5)c(C#N)c3)n2)cn1 (stereo not shown) [DMX-44, 2-(3-Hydroxy-8-aza-bicyclo[3.2.1]oct-8-yl)-5-[2-(1-methyl-1H-pyrazol-4-ylamino)-pyrimidin-4-yl]-nicotinonitrile] | – | – | < 15 nM | < 30 nM
4 | Cn1cc(Nc2nccc(-c3cnc(N4C5CCC4COC5)c(C#N)c3)n2)cn1 [DMX-45, 5-[2-(1-Methyl-1H-pyrazol-4-ylamino)-pyrimidin-4-yl]-2-(3-oxa-8-aza-bicyclo[3.2.1]oct-8-yl)-nicotinonitrile] | < 100 nM | < 100 nM | – | –
5 | N#Cc1cc(-c2ccnc(Nc3cnn(CCO)c3)n2)cnc1N1C2CCC1COC2 [DMX-46, 5-{2-[1-(2-Hydroxy-ethyl)-1H-pyrazol-4-ylamino]-pyrimidin-4-yl}-2-(3-oxa-8-aza-bicyclo[3.2.1]oct-8-yl)-nicotinonitrile] | < 100 nM | < 1000 nM | – | –
6 | N#Cc1cc(-c2ccnc(Nc3ccc(C(N)=O)nc3)n2)cnc1N1CC[C@H](F)C1 [DMX-47, 5-{4-[5-Cyano-6-((S)-3-fluoro-pyrrolidin-1-yl)-pyridin-3-yl]-pyrimidin-2-ylamino}-pyridine-2-carboxylic acid amide] | < 30 nM | < 30 nM | – | –
7 | N#Cc1cc(-c2ccnc(Nc3ccc(C(=O)NCCO)cc3)n2)cnc1N1CC[C@H](F)C1 [DMX-48, 4-{4-[5-Cyano-6-((S)-3-fluoro-pyrrolidin-1-yl)-pyridin-3-yl]-pyrimidin-2-ylamino}-N-(2-hydroxy-ethyl)-benzamide] | < 15 nM | < 15 nM | – | –
8 | N#Cc1cc(-c2ccnc(Nc3ccc(N4CCOCC4)cc3)n2)cnc1N1CC[C@H](O)C1 [DMX-49, 2-((S)-3-Hydroxy-pyrrolidin-1-yl)-5-[2-(4-morpholin-4-yl-phenylamino)-pyrimidin-4-yl]-nicotinonitrile] | < 15 nM | < 15 nM | – | –
9 | N#Cc1cc(-c2ccnc(Nc3ccc(N4CCOCC4)nc3)n2)cnc1N1CC[C@H](O)C1 [DMX-50, 2-((S)-3-Hydroxy-pyrrolidin-1-yl)-5-[2-(6-morpholin-4-yl-pyridin-3-ylamino)-pyrimidin-4-yl]-nicotinonitrile] | < 30 nM | < 100 nM | – | –
10 | N#Cc1cc(-c2ccnc(Nc3cnn(CCO)c3)n2)cnc1N1CC[C@H](F)C1 [DMX-51, 2-((S)-3-Fluoro-pyrrolidin-1-yl)-5-{2-[1-(2-hydroxy-ethyl)-1H-pyrazol-4-ylamino]-pyrimidin-4-yl}-nicotinonitrile] | < 30 nM | < 30 nM | – | –
11 | N#Cc1cc(-c2ccnc(Nc3cnn(CCCO)c3)n2)cnc1N1CC[C@H](F)C1 [DMX-52, 2-((S)-3-Fluoro-pyrrolidin-1-yl)-5-{2-[1-(3-hydroxy-propyl)-1H-pyrazol-4-ylamino]-pyrimidin-4-yl}-nicotinonitrile] | < 30 nM | < 100 nM | – | –
12 | N#Cc1cc(-c2ccnc(Nc3cnn(CCN4CCOCC4)c3)n2)cnc1N1CC[C@H](F)C1 [DMX-53, 2-((S)-3-Fluoro-pyrrolidin-1-yl)-5-{2-[1-(2-morpholin-4-yl-ethyl)-1H-pyrazol-4-ylamino]-pyrimidin-4-yl}-nicotinonitrile] | < 30 nM | < 100 nM | – | –
13 | COCCNCC(=O)Nc1ccc(Nc2nccc(-c3cnc(N4CC[C@H](F)C4)c(C#N)c3)n2)cn1 [DMX-54, N-(5-{4-[5-Cyano-6-((S)-3-fluoro-pyrrolidin-1-yl)-pyridin-3-yl]-pyrimidin-2-ylamino}-pyridin-2-yl)-2-(2-methoxy-ethylamino)-acetamide] | < 100 nM | < 30 nM | – | –

Now from value to compound, other results behind:

Row | IC50 (TBK1; [1]) | IC50 (IKKε; [2]) | SMILES | IC50 (TBK1) | IC50 (IKKε)
14 | < 30 nM | < 100 nM | CC(NCc1ccccc1)C(=O)Nc1ccc(Nc2nccc(-c3cnc(N4CC[C@H](F)C4)c(C#N)c3)n2)cn1 (stereo partly drawn) [DMX-55, 2-Benzylamino-N-(5-{4-[5-cyano-6-((S)-3-fluoro-pyrrolidin-1-yl)-pyridin-3-yl]-pyrimidin-2-ylamino}-pyridin-2-yl)-propionamide] | – | –
15 | < 100 nM | < 30 nM | CC(N)C(=O)Nc1ccc(Nc2nccc(-c3cnc(N4CC[C@H](F)C4)c(C#N)c3)n2)cn1 (stereo partly drawn) [DMX-56, 2-Amino-N-(5-{4-[5-cyano-6-((S)-3-fluoro-pyrrolidin-1-yl)-pyridin-3-yl]-pyrimidin-2-ylamino)-pyridin-2-yl)-propionamide] | – | –
16 | < 15 nM | < 30 nM | N#Cc1nc(-c2ccnc(Nc3ccc(N4CCOCC4)cc3)n2)ccc1N1CC[C@H](O)C1 [DMX-57, 3-((S)-3-Hydroxy-pyrrolidin-1-yl)-6-[2-(4-morpholin-4-yl-phenylamino)-pyrimidin-4-yl]-pyridine-2-carbonitrile] | – | –
17 | < 15 nM | < 15 nM | N#Cc1nc(-c2ccnc(Nc3ccc(N4CCOCC4)cc3)n2)ccc1N1CCCC1 [DMX-58, 6-[2-(4-Morpholin-4-yl-phenylamino)-pyrimidin-4-yl]-3-pyrrolidin-1-yl-pyridine-2-carbonitrile] | – | –
18 | < 100 nM | < 100 nM | Cn1cc(Nc2nccc(-c3ccc(N4CC[C@H](O)C4)c(C#N)n3)n2)cn1 [DMX-59, 3-((S)-3-Hydroxy-pyrrolidin-1-yl)-6-[2-(1-methyl-1H-pyrazol-4-ylamino)-pyrimidin-4-yl]-pyridine-2-carbonitrile] | – | –
19 | < 100 nM | < 100 nM | Cn1cc(Nc2nccc(-c3ccc(N4CCC(C(N)=O)CC4)c(C#N)n3)n2)cn1 [DMX-60, 2′-Cyano-6′-[2-(1-methyl-1H-pyrazol-4-ylamino)-pyrimidin-4-yl]-3,4,5,6-tetrahydro-2H-[1,3′]bipyridinyl-4-carboxylic acid amide] | – | –
20 | < 15 nM | < 15 nM | N#Cc1cc(-c2ccnc(Nc3ccnc(N4CCOCC4)c3)n2)cnc1N1CC[C@H](F)C1 [DMX-61, 2-((S)-3-Fluoro-pyrrolidin-1-yl)-5-[2-(2-morpholin-4-yl-pyridin-4-ylamino)-pyrimidin-4-yl]-nicotinonitrile] | – | –
21 | < 100 nM | < 30 nM | CC(C)(N)C(=O)Nc1ccc(Nc2nccc(-c3cnc(N4CC[C@H](F)C4)c(C#N)c3)n2)cn1 [DMX-62, 2-Amino-N-(5-{4-[5-cyano-6-((S)-3-fluoro-pyrrolidin-1-yl)-pyridin-3-yl]-pyrimidin-2-ylamino}-pyridin-2-yl)-2-methyl-propionamide] | – | –
22 | < 15 nM | < 15 nM | N#Cc1cc(-c2ccnc(Nc3cn[nH]c3)n2)cnc1N1CC[C@H](F)C1 [DMX-63, 2-((S)-3-Fluoro-pyrrolidin-1-yl)-5-[2-(1H-pyrazol-4-ylamino)-pyrimidin-4-yl]-nicotinonitrile] | – | –
23 | < 1000 nM | < 100 nM | N#Cc1cc(-c2ccnc(Nc3ccn[nH]3)n2)cnc1N1CC[C@H](F)C1 [DMX-64, 2-((S)-3-Fluoro-pyrrolidin-1-yl)-5-[2-(2H-pyrazol-3-ylamino)-pyrimidin-4-yl]-nicotinonitrile] | – | –
24 | < 100 nM | < 30 nM | N#Cc1cc(-c2ccnc(Nc3ccc(NC(=O)[C@@H]4CCCN4)nc3)n2)cnc1N1CC[C@H](F)C1 [DMX-65, (S)-Pyrrolidine-2-carboxylic acid (5-{4-[5-cyano-6-((S)-3-fluoro-pyrrolidin-1-yl)-pyridin-3-yl]-pyrimidin-2-ylamino}-pyridin-2-yl)-amide] | – | –
25 | < 30 nM | < 100 nM | N#Cc1cc(-c2ccnc(Nc3ccc(NC(=O)CN4CCCC4)nc3)n2)cnc1N1CC[C@H](F)C1 [DMX-66, N-(5-{4-[5-Cyano-6-((S)-3-fluoro-pyrrolidin-1-yl)-pyridin-3-yl]-pyrimidin-2-ylamino}-pyridin-2-yl)-2-pyrrolidin-1-yl-acetamide] | – | –
26 | < 30 nM | < 15 nM | N#Cc1cc(-c2ccnc(Nc3ccc(NCCN4CCOCC4)nc3)n2)cnc1N1CC[C@H](F)C1 [DMX-67, 2-((S)-3-Fluoro-pyrrolidin-1-yl)-5-{2-[6-(2-morpholin-4-yl-ethylamino)-pyridin-3-ylamino]-pyrimidin-4-yl}-nicotinonitrile] | – | –
27 | < 15 nM | < 15 nM | N#Cc1cc(-c2ccnc(Nc3ccc(CN4CCOCC4)nc3)n2)cnc1N1CC[C@H](F)C1 [DMX-68, 2-((S)-3-Fluoro-pyrrolidin-1-yl)-5-[2-(6-morpholin-4-ylmethyl-pyridin-3-ylamino)-pyrimidin-4-yl]-nicotinonitrile] | – | –
28 | < 100 nM | < 30 nM | N#Cc1cc(-c2ccnc(Nc3ccc(NC(=O)CN4CC[C@H](F)C4)nc3)n2)cnc1N1CC[C@H](F)C1 [DMX-69, N-(5-{4-[5-Cyano-6-((S)-3-fluoro-pyrrolidin-1-yl)-pyridin-3-yl]-pyrimidin-2-ylamino}-pyridin-2-yl)-2-((S)-3-fluoro-pyrrolidin-1-yl)-acetamide] | – | –
29 | < 100 nM | < 100 nM | N#Cc1cc(-c2ccnc(Nc3ccc(OCCN4CC[C@H](F)C4)nc3)n2)cnc1N1CC[C@H](F)C1 [DMX-70, 2-((S)-3-Fluoro-pyrrolidin-1-yl)-5-(2-{6-[2-((S)-3-fluoro-pyrrolidin-1-yl)-ethoxy]-pyridin-3-ylamino}-pyrimidin-4-yl)-nicotinonitrile] | – | –
